According to patent US20240385174A1, “METHOD FOR SCREENING SUBSTANCE THAT SUPPRESSES 4-METHYLACETOPHENONE ODOR, AND METHOD FOR SUPPRESSING 4-METHYL ACETOPHENONE ODOR” (AJINOMOTO CO., INC., priority 2022, published 2024):

How the values were obtained:
OR5P3 = molecular target: T1, OR5P3 (Homo sapiens, UniProt Q8WZ94); test: Screening for OR5P3 antagonist (luciferase assay, 2-heptanone as receptor-activating substance); assay type: cell-based; conditions: inhibition of OR5P3 response to 2-heptanone (1000 μM); test substance 0.3-100 μM; HEK293T cells expressing OR5P3
T1 construct: host or cells: HEK293T
T1 sequence (Q8WZ94 with tags, fused parts or gaps): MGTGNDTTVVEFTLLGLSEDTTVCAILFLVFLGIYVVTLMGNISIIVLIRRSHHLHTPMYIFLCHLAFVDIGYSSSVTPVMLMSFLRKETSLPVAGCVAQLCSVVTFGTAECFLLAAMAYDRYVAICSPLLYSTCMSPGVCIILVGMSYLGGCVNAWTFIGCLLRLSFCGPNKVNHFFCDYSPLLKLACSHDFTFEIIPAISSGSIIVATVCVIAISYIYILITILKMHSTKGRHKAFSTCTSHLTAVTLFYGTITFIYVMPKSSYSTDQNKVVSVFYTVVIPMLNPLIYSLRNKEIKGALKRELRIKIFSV
Method: The expression vector mixture was allowed to stand for 20 minutes in a laminar flow cabinet and then added to HEK293T cells inoculated in 10-cm petri dishes the day before (2.5 to 3.5×10^6 cells/10-cm petri dish). After incubation for 5 hours in an incubator maintained at 37° C. and 5% CO2, the HEK293T cells were inoculated into each well of a 96-well plate (BD) in a volume of 100 μl (2.5×10^6 cells/ml), and cultured overnight in an incubator maintained at 37° C. and 5% CO2. […] As a control, the same procedure was performed by using the empty vector Rho-pME18S instead of the expression vector for human olfactory receptor in the expression vector mixture to obtain culture of the HEK293T cells transfected with the empty vector Rho-pME18S (hereinafter also referred to as the “control cells”).
The medium was removed from the culture of HEK293T cells expressing OR5P3 obtained in the section <1-2> mentioned above, and 60 μl of a mixed solution of a test substance and 2-heptanone (containing 100 μM test substance and 1000 μM 2-heptanone) or 60 μl of a 2-heptanone solution (containing 1000 μM 2-heptanone) was added to obtain a reaction solution. The solutions were prepared by dissolving the substances in CD293 (Life Technologies, Inc.). The cells were incubated in a CO2 incubator at 37° C. for 3 hours so that the firefly luciferase gene was sufficiently expressed in the cells. The value of luminescence derived from firefly luciferase in the cells was measured and designated as “Luc value”. The value of luminescence derived from firefly luciferase was measured by using Dual-Go™ Luciferase Assay System (Promega) according to the operation manual of the product.
Receptor response inhibition ratio of the test substance was calculated as follows. The Luc value (Y) in the cells not stimulated with 2-heptanone was subtracted from the Luc value (X) in the cells stimulated with 2-heptanone alone. Similarly, the Luc value (Y) in the cells not stimulated with 2-heptanone was subtracted from the Luc value (Z) in the cells stimulated with a mixture of 2-heptanone and the test substance. The receptor response inhibition ratio of the test substance was calculated in accordance with the following equation using the increase in value of luminescence caused by stimulation with 2-heptanone alone (X Y) as the standard. The experiment was performed in duplicate, and an average value was obtained.
The concentration of the test substance was 0.3, 1, 3, 10, 30, or 100 μM. The response of the receptor to 2-heptanone (1000 μM) in the presence of each concentration of the test substance was measured and represented as the relative response intensity based on the response intensity of the receptor to 2-heptanone (1000 μM) observed in the absence of the test substance, which was taken as 100%.

[1] = Test Example 3: sensory evaluation of citral-derived degradation odor-masking effect; assay type: in vivo; conditions: score 0 to 10 (0 normal sample, 5 normal:degraded 1:1, 10 degraded sample); 100 ppm citral aqueous solution stored at 44° C. for two weeks; added ppm: decadienal 0.002, nonadienal 0.002, 2-methylbenzenethiol 0.165, S-(2-methyl-3-furyl) ethanethioate 0.120, piperine 6.667, nootkatone 10.000, sclareol 16.667; average of two experts
Method: A 100 ppm citral aqueous solution (stored under refrigeration after preparation) was used as a normal sample. This solution was stored at 44° C. for two weeks to generate a degraded odor derived from citral, and was used as a degraded sample. Evaluation samples were prepared by adding each of the compounds shown in Table 5 to the degraded sample at the concentrations shown in the same.
The citral-derived degradation odor intensity was scored as 0 to 10 on the basis of the following evaluation criteria. […] On the basis of the citral-derived degradation odor intensity, the citral-derived degradation odor-masking effect was evaluated.
• 0: Citral-derived degradation odor intensity of the normal sample • 5: Citral-derived degradation odor intensity of a mixture of the normal sample and degraded sample (normal sample:degraded sample=1:1) • 10: Citral-derived degradation odor intensity of the degraded sample

[2] = Test Example 4: sensory evaluation of lemon-derived degradation odor-masking effect (single compounds); assay type: in vivo; conditions: score 0 to 10 (0 normal sample, 5 normal:degraded 1:1, 10 degraded sample); lemon beverage stored at 44° C. for 2 weeks; added ppm: decadienal 0.002, nonadienal 0.002, 2-methylbenzenethiol 0.165, S-(2-methyl-3-furyl) ethanethioate 0.120, piperine 6.667, nootkatone 10.000, sclareol 16.667; average of 2 experts
Method: A commercially available lemon beverage (Chelate Lemon W Lemon (Pokka Sapporo), stored under refrigeration after purchased) was used as a normal sample. This lemon beverage was stored at 44° C. for 2 weeks to generate a lemon-derived degradation odor and was used as a degraded sample. Evaluation samples were prepared by adding each of the compounds shown in Table 6 to the degraded sample at the concentrations shown in the same.
The lemon-derived degradation odor intensity was scored as 0 to 10 on the basis of the following evaluation criteria. […] On the basis of the lemon-derived degradation odor intensity, the lemon-derived degradation odor-masking effect was evaluated.
• 0: Lemon-derived degradation odor intensity of the normal sample • 5: Lemon-derived degradation odor intensity of a mixture of the normal sample and degraded sample (normal sample:degraded sample=1:1) • 10: Lemon-derived degradation odor intensity of the degraded sample

olfactory receptor OR5P3 = molecular target: T2, olfactory receptor OR5P3 (Homo sapiens, UniProt Q8WZ94); test: Luciferase reporter gene assay: response of human olfactory receptors to 4-methylacetophenone; assay type: cell-based
T2 construct: host or cells: HEK293T
T2 sequence (Q8WZ94 with tags, fused parts or gaps): T1 sequence (Q8WZ94 with tags, fused parts or gaps)
From the text: The genes for the 352 types of human olfactory receptors were purchased from TrueClone cDNA Clone Collection (OriGene). Fragments for subcloning of the 352 types of human olfactory receptor genes were amplified by PCR using primers designed on the basis of sequence information available in GenBank and the purchased human olfactory receptor genes as the templates. Each of the amplified fragments for subcloning of the genes was subcloned into the Rho-pME18S vector (K. Kajiya et al., Journal of Neuroscience. 15 Aug. 2001, 21 (16) 6018-6025) downstream of the Rho tag sequence using the EcoRI and XhoI sites to obtain 352 types of expression vectors for human olfactory receptors.
HEK293T cells expressing each of the 352 types of olfactory receptors were prepared by the following procedure. […]
The olfactory receptors expressed by HEK293T cells conjugate with Golf to activate adenylate cyclase, and thereby increase the amount of intracellular cAMP. In this example, the olfactory receptor response was measured by using a luciferase reporter gene assay, in which the increase in intracellular cAMP amount is monitored as an increase in firefly luciferase-derived luminescence. […] In addition, value of the luminescence derived from Renilla luciferase was used as an internal standard to correct errors caused by differences in gene transfer efficiency and cell number in each well. […]

Row | Structure (SMILES) | IC50 (OR5P3) [µM] | Evaluation score (citral-derived degradation odor intensity) [1] | Evaluation score (lemon-derived degradation odor intensity) [2] | also measured
1 | CC(C)CC(O)Cc1ccccc1 (centres unmarked) | 67 |  |  | 
2 | C=C[C@](C)(O)CC[C@@H]1[C@@]2(C)CCCC(C)(C)[C@@H]2CC[C@@]1(C)O [Sclareol] |  | 5.5 | 6 | 
3 | CC=C(C=O)c1ccccc1 [2-Phenyl-2-butenal] | 65 |  |  | 
4 | CCCC/C=C/C=C/C=O [trans, trans-2,4-Nonadienal] |  | 7 | 7.5 | 
5 | SCc1cccs1 [2-Thiophenemethanethiol] | 39 |  |  | 
6 | SCCc1ccccc1 [2-Phenylethanethiol] | 17 |  |  | 
7 | CCCCC/C=C/C=C/C=O [trans, trans-2,4-Decadienal] |  | 5 | 6 | 
8 | CCCCCCCCC(=O)NCc1ccc(O)c(OC)c1 [N-Vanillylnonanamide] | 2 |  |  | 
9 | c1coc(CSCc2ccco2)c1 [Difurfuryl sulfide] | 39 |  |  | 
10 | S=C=NCc1ccccc1 [Benzyl isothiocyanate] | 19 |  |  | 
11 | CC(=O)Sc1ccoc1C [S-(2-Methyl-3-furyl) ethanethioate] | 45 | 6 | 6 | 
12 | Sc1cccs1 [2-Thiophenethiol] | 76 |  |  | 
13 | Cc1ccccc1S [2-Methylbenzenethiol] | 46 | 8 | 8 | 
14 | CC(=O)c1ccc(C)cc1 [4-methylacetophenone] |  |  |  | response of olfactory receptor OR5P3 to 4-methylacetophenone (olfactory receptor activity) (olfactory receptor OR5P3; 300 μM and 30 μM 4-methylacetophenone, 352 types of human olfactory receptors expressed in HEK293T cells, FIGS. 1 and 2): OR5P3 showed a response; 4-methylacetophenone concentration dependency of the response of OR5P3 (fold increase) (olfactory receptor OR5P3; HEK293T cells expressing OR5P3, n=3, FIG. 3): concentration-dependent manner
15 | CC=Cc1ccc(OCc2ccccc2)c(OC)c1 [Benzyl isoeugenol] | 49 |  |  | 
16 | O=C(/C=C/C=C/c1ccc2c(c1)OCO2)N1CCCCC1 [Piperine] |  | 6 | 8 | 
17 | CCC=CC=CC=O [2,4-Heptadienal] | 78 |  |  | 
18 | C=C(C)[C@@H]1CCC2=CC(=O)C[C@@H](C)[C@]2(C)C1 [Nootkatone] | 8.1 | 5.5 | 6 | 
